According to article PMC7215935, “GM1 Oligosaccharide Crosses the Human Blood–Brain Barrier In Vitro by a Paracellular Route” (International Journal of Molecular Sciences, 2020):

Experiments:
[1] = cited from earlier work
[2] = system: human brain-like endothelial cells (hBLECs); assay: Direct transport (apical to basolateral, A → B) across the hBLEC monolayer: Pe and Papp; assay type: in vitro ADME; settings: for endothelial permeability Pe (A → B): after 60 min, hBLEC monolayer
Procedure: (§1) Prior to the experiments, in order to verify the hBLECs’ monolayer integrity and stability, the permeability parameters were verified as previously reported. Briefly, 1.5 mL Ringer–Hepes solution (RH) (150 mM NaCl, 5.2 mM KCl, 2.2 mM CaCl2, 0.2 mM MgCl26H2O, 6 mM NaHCO3, 5 mM HEPES, pH: 7.4) was added to empty wells of a 12-well plate. Filter insert containing confluent monolayers of hBLECs or not (control) were subsequently placed in the 12-well plate, filled with 0.5 mL RH buffer containing the fluorescent integrity marker LY (50 μM), and then placed on an orbital shaker (150 rpm, Heidolph Titramax 100) at 37 °C in a humidify atmosphere of 95% air/5% CO2. Every 20 min for 1 h, filter inserts were withdrawn from the receiver compartment and placed in the next one. To verify the quantity of LY, at the end of the experiments, aliquots from the donor solution were taken at the end of the experiments and the fluorescence was quantified using a quantification curve of LY as referee. At least three inserts with cells and three without cells were tested in each permeability measurement. The fluorescence was measured using a luminescence spectrometer (LS 50B, Perkin Elmer), using the following excitation/emission wavelength (nm) settings: 432/538. Pe parameters were calculated according to the formulas shown in the Supplementary Information (Equations (7)–(10)). In parallel, as positive control for breakdown of hBLECs, D-mannitol, was used at a concentration of 1.4 M. At this concentration, mannitol induces an osmotic shock, and thus an increase in paracellular permeability.
Transport experiments were carried out by adding tritium-labeled GM1 or OligoGM1 (1 × 10^6 dpm) to cold GM1 or OligoGM1, respectively, at different concentrations, as specified below.
To identify and quantify the GM1 or OligoGM1 molecules in every transport experiment, aliquots from apical A (5 μL) and basolateral B (200 μL) compartments were collected at indicated time points and combined with 5 mL of ULTIMA GOLD liquid (PerkinElmer), shaken, and counted for 20 min by liquid scintillation analyzer (TRI-CARB 2100TR, Packard). Resulting radioactivity measures were used to estimate the quantity of the molecules. Experiments were performed on an agitation plate at 37 °C (150 rpm, Heidolph Titramax 100) in a humidify atmosphere of 95% air/5% CO2. At least three inserts with cells were tested in each transport experiment for each condition.
To examine flux from apical to basolateral compartments (A → B), 1.5 mL RH buffer was added to empty wells of a 12-well plate. Following this, the hBLEC filter was placed in the same 12-well plate and filled with 0.5 mL RH buffer containing 1 × 10^6 dpm of tritiated [^3H]GM1 or [^3H]OligoGM1 plus 50 μM of cold GM1 or OligoGM1 (Figure S3b).
To establish the time dependence of the transport experiments, hBLEC inserts filled with OligoGM1 were transferred into a new receiver well plate filled with fresh RH buffer every 20 min up to 240 min. The hBLECs’ properties, integrity, and stability were maintained up to 240 min in the transport experiments with RH buffer in the upper and basolateral side (see [28] and Figure S4).
To establish the dose dependence in the transport experiments, 1 × 10^6 dpm of tritiated [^3H]OligoGM1 plus 5, 10, 50, 100, and 300 μM OligoGM1 solutions were prepared and employed as described above. The hBLECs inserts were transferred into a new RH-filled receiver well plate every 20 min up to 60 min. […]
To evaluate the possible active transport involvement, the transport of OligoGM1 from apical to basolateral (A → B) compartments was performed at 4 °C, with the aim of inhibiting the active transport mechanism at low temperature. […]

hBLECs [3] = assay: Toxicity on hBLECs / monolayer integrity by LY permeability in combination with test substance; assay type: cell-based, human
Procedure: as §1
To evaluate the toxicity of GM1 and OligoGM1, the LY endothelial permeability (Pe) and apparent permeability (Papp) were considered for evaluation of hBLEC monolayer integrity after administration of compounds.
To examine the LY permeability, 1.5 mL of RH buffer was added to empty wells of a 12-well plate, then hBLEC filters were placed in the 12-well plate and filled with 0.5 mL RH buffer containing 50 μΜ LY plus OligoGM1 or GM1 at an appropriate test concentration (from 5 to 300 μΜ). The hBLEC inserts were moved every 20 min to a new RH-filled well up to 60 min. At the end of the incubation period, solutions were collected from apical and basolateral compartments, LY was quantified, and Papp was calculated as reported in the Supplementary Information (Equation (1)) and previously mentioned.

MRPs = assay: ABC transporter competition assay (Caco-2 pump out), CMFDA efflux; settings: Caco-2 cells, positive control
Procedure: Briefly, Caco-2 cells in 96-well plates were washed once with RH buffer and incubated for 120 min with 10 µM R123 or for 15 min with 0.5 µM CMFDA. R123 and CMFD are substrates for the major efflux pumps expressed by BBB and intestine cells, i.e., P-gp/BCRP and MRPs, respectively. After the incubation period, Caco-2 cells were washed twice with RH buffer with or without test compounds (OligoGM1 at 10, 50, and 100 µM). The rate out (Kout) of Caco-2 cells for fluorescent dyes was monitored by fluorescence measurement (λex = 501 nm and λem = 538 nm for R123; λex = 485 nm and λem = 538 nm for CMFDA) using a microplate fluorescent reader (BioTek, H1, Vermont, Winooski). The amount of dye expelled from the cells was measured at 37 °C and every 5 min for one hour for R123 and every 2 min for 30 min for CMFDA. The rate out of the dye from cells was calculated as the slope of the curve of the cumulative amount of dye against the time (Kout = ∆pmol⁄∆t) and compared with the value in the presence of test compounds.

[4] = system: human brain-like endothelial cells (hBLECs); assay: Inverse transport (basolateral to apical, B → A) across hBLECs and efflux ratio; assay type: in vitro ADME
Procedure: For the inverse transport study (related to basolateral → apical flux, B → A), 1.5 mL of 1 × 10^6 dpm of tritiated [^3H]OligoGM1 plus 50 μM OligoGM1 in RH buffer were added to an empty well of a 12-well plate (Figure S3c). Every 20 min up to 60 min, the hBLEC filter filled with 0.5 mL RH buffer was removed and replaced with a new filter with fresh RH buffer.
The apparent permeability, efflux ratio, and endothelial permeability were calculated to estimate the absorption processes of drugs, to predict implication of active transport in the process of drugs absorption, and to more accurately appreciate the transport of a drug across an endothelial barrier, respectively. Detailed information on the equations used to calculate the permeability parameters are reported in the Supplementary Information. […]
where (∆Q/∆t) (μmol/sec) is the rate of permeation (quantity per second) of a molecule across the cell layer, C0 (μmol/cm3) is the donor compartment concentration at time zero and S (cm2) is the area of […]
In the transwell insert system there are two compartments and, analyzing the absorption of a substance, the apparent permeability index can be obtained for the apical to basolateral transport, Papp A → B, and for the inverse, basolateral to apical transport Papp B → A.
To define Papp (1), the Fick's law could be used, which describes the transport of substances through a semipermeable membrane. Given that the initial concentration of the solute in the donor compartment is much higher than the one in the receiver compartment (equal to 0 at t0), and assuming that the solute equally partitions in the two compartments, for small variation of C0, it is possible to integrate and simplify the Fick’s equation to obtain as follows: […]
where ∆Q/∆t corresponds to the amount of solute that crosses the membrane over time, D is the diffusion coefficient of the substance in water, S is the membrane surface, h its thickness and C0 is the concentration of the solute which approximates the initial concentration C0.
The equation (2) can be rewritten as: […]

hBLECs [5] = assay: Metabolic integrity of OligoGM1 after hBLEC transport (HPTLC autoradiography); assay type: in vitro ADME, human; settings: basolateral compartment, detection limit 15 dpm
From the text: Since OligoGM1 is tritium labeled at position 6 of the external galactose, any possible galactosidase activity present on the plasma membrane of hBLECs can result in external galactose removal, leading to loss of radioactivity from the penta-saccharide. Radiolabeled galactose may pass the BBB or may enter into the cells and be recycled for the biosynthesis of new glycans, so that the radioactivity found may correspond to the galactose or to any possible new glycan rather than to the original oligosaccharide.
Thus, to test the integrity of the OligoGM1 molecule after hBLEC crossing, OligoGM1 solution was prepared in RH buffer at a final concentration of 100 μM plus 1 × 10^6 dpm of tritium-labeled OligoGM1. For the apical–basolateral transport experiment, the hBLEC insert’s apical side was filled with 0.5 mL of the drug solution and placed on 1.5 mL RH buffer-filled well of a 12-well plate. After 60 min, the solution of the receiving compartment (about 1.5 mL) was collected and 200 μL were combined with 5 mL of ULTIMA GOLD liquid (PerkinElmer), shaken, and counted for 20 min by a liquid scintillation analyzer (TRI-CARB 2100TR, Packard).
To verify that the counted radioactivity indeed corresponded to [^3H]OligoGM1, 0.5 mL of receiving compartment solution was lyophilized and suspended in 0.5 mL of methanol. […]

hBLECs [6] = assay: Fate of OligoGM1 in hBLECs (cell-associated radioactivity); assay type: in vitro ADME, human
Procedure: The possible internalization of OligoGM1 in hBLECs was determined by measuring the radioactivity associated to the cells. Briefly, at the end of direct transport, apical and basolateral solutions were collected, hBLEC filters were washed with RH buffer, and cells were detached by trypsin and lysed with 1mM Na3VO4, 1 mM PMSF, 2% (v/v) aprotinin, and 1% (v/v) IP in cold PBS. At this point, the lysed cell solution was counted to measure the radioactivity. All the cell lysates were combined with 5 mL of ULTIMA GOLD liquid (PerkinElmer), shaken, and counted for 20 min by liquid scintillation analyzer (TRI-CARB 2100TR, Packard). The resulting dpm radioactivity measures were used to estimate the molecule quantity.

[7] = 1.4 M, osmotic shock, positive control for leakage

Compound: 6′-R-maltosyl-maltotrioside
- hydrodynamic radius (r) [1]: 8.7 Å

Compound: CCCCCCCCCCCCCC=CC(O)C(COC1OC(CO)C(OC2OC(CO)C(OC3OC(CO)C(O)C(OC4OC(CO)C(O)C(O)C4O)C3NC(C)=O)C(OC3(C(=O)O)CC(O)C(NC(C)=O)C(C(O)C(O)CO)O3)C2O)C(O)C1O)NC(=O)CCCCCCCCCCCCCCCCC (stereo not drawn) [GM1, β-Gal-(1-3)-β-GalNAc-(1-4)-[α-Neu5Ac-(2-3)]-β-Gal-(1-4)-β-Glc-(1-1)-Cer, reference compound]
- endothelial permeability Pe (A → B) ([2]; 50 μM): 0.028 ± 0.007 ×10^−3 cm/min
- effect on LY Pe and Papp (toxicity to hBLECs) (hBLECs [3]; 10, 50, 100 and 300 μM with 50 μM LY, 60 min and over time (20, 40, 60 min)): no variations of LY Pe and Papp were observed

Compound: OC[C@@H](O)[C@@H](O)[C@H](O)[C@H](O)CO [D-mannitol]
- rise of LY Papp on co-incubation (hBLECs [3]; [7]): 4 fold
- rise of LY Pe on co-incubation (hBLECs [3]; [7]): 20 fold

Compound: CN(C)C(=O)CCSC(SCCC(=O)O)c1cccc(/C=C/c2ccc3ccc(Cl)cc3n2)c1 (centres unmarked) [MK571, reference compound]
- decrease of outgoing rate (Kout) of CMFDA (MRPs): more than 30%

Compound: Lucifer yellow [LY, reference compound]
- apparent permeability Papp (A → B) of LY alone ([2]; 50 μM LY, hBLEC integrity check (Figure 2)): 1.25 ± 0.123 ×10^−5 cm/s
- Papp A>B at 4 °C ([2]; 50 μM, 60 min, 4 °C (Figure 6d)): 1.04 ± 0.068 x 10^-5 cm/sec
- Papp A>B at 37 °C ([2]; 50 μM, 60 min, 37 °C, temperature experiment (Figure 6d)): 1.27 ± 0.072 x 10^-5 cm/sec
- endothelial permeability Pe (A → B) ([2]; 50 μM): 0.65 ± 0.041 ×10^−3 cm/min
- hydrodynamic radius (r) [1]: 4.9 Å
- Papp B>A ([4]; 50 μM in basolateral compartment, 60 min (Figure 7)): 1.59 ± 0.27 x 10^-5 cm/sec
- Efflux Ratio (E) = Papp B>A / Papp A>B ([4]; 50 μM, 60 min, hBLECs): 1.25

Compound: OC[C@H]1O[C@H](OC[C@H]2O[C@H](OC[C@H]3O[C@H](O[C@]4(CO)O[C@H](CO)[C@@H](O)[C@@H]4O)[C@H](O)[C@@H](O)[C@@H]3O)[C@H](O)[C@@H](O)[C@H]2O)[C@H](O)[C@@H](O)[C@H]1O [stachyose]
- hydrodynamic radius (r) [1]: 6.5 Å

Compound: [6-^3H]β-Gal-(1-3)-β-GalNAc-(1-4)-[α-Neu5Ac-(2-3)]-β-Gal-(1-4)-β-Glc-Cer [[^3H]OligoGM1]
- metabolic stability after hBLEC crossing (hBLECs [5]): metabolically stable
- amount found within the cells (internalization) (hBLECs [6]; 50 μM apical, 20, 40, 60, 240 min, cell lysate): no detectable amount
- radioactivity associated with apical and basolateral solutions (hBLECs [6]; 50 μM apical, each time point 20, 40, 60, 240 min): about 99%
